Experimental data taken from patent US12427134B2, “Methods of reducing the risk of cardiovascular events in a subject with atrial fibrillation and/or atrial flutter” (priority 2019, dated 2025).

Test system: hypertriglyceridemic patients with cardiovascular disease or at high risk for cardiovascular disease
Assay: REDUCE-IT: primary and key secondary endpoints adjusted for baseline covariates (stepwise selection) and time varying post-baseline lipids
Type: in vivo, human
Details: ITT
Procedure: The primary efficacy analysis was performed on the ITT population. A sensitivity analysis was performed using the mITT and PP populations. As a sensitivity analysis, patients who discontinued study drug prematurely were censored for the primary composite endpoint analysis on the date of drug discontinuation. The primary analysis was repeated using this censoring rule for the mITT population. As a supportive analysis, a multivariable, stratified Cox proportional hazards model was constructed for the primary endpoint to evaluate the treatment effect adjusting for important covariates.
As an additional exploratory analysis, the relationship between post-baseline biomarker values and treatment effects with the primary and key secondary endpoints were assessed by adding biomarker values (for example, at 4 months, or at 1 year, etc.) as time-dependent covariates in the Cox proportional hazards model. Diagnostic plots for the proportional hazard's assumption was evaluated. Weight was measured at the screening visit and at all follow-up visits, including the last visit of the study. Waist circumference was measured at the randomization visit (Visit 2; Day 0), Visit 5 (Day 720) and the last visit of the study. Descriptive statistics were presented by visit and treatment group for baseline, post-treatment change from baseline, and the percent change from baseline. Analysis methods for repeated measurements were used to compare percent change from baseline between treatments.
In the main analysis of the primary endpoint for the REDUCE-IT trial, treatment was the only covariate employed in the stratified Cox proportional hazards model. Stratification variables included CV risk category at baseline (primary prevention cohort and secondary prevention cohort), use of ezetimibe at baseline (yes/no), and geographical region (Westernized, Eastern European, and Asia Pacific).
The model included treatment and any of the following variables, identified by a stepwise selection procedure: (1) sex; (2) age at baseline (<65 or ≥65 years); (3) race (white and non-white); (4) presence/absence of diabetes at baseline; (5) baseline LDL-C (by tertile); (6) baseline HDL-C (by tertile); (7) baseline non-HDL-C (by tertile); (8) baseline TG (by tertile); (9) baseline hsCRP (≤3 mg/Land >3 mg/L); (10) baseline apo B (by tertile); (11) baseline RLP-C (by tertile); (12) Hopkins calculated LDL-C at baseline (by tertile); (13) waist/height ratio at baseline; (14) waist circumference at baseline.
The SAS proportional hazard regression procedure was used to automatically conduct the stepwise selection of the important baseline covariates. The minimum p-value for the inclusion of the baseline covariate into the proportional hazard model was 0.05, and these selected baseline covariates with p<0.10 would remain in the final model as important baseline covariates after all baseline covariates were evaluated by the model. The HR, 95% CI, and p-value comparing the two treatment groups, and the HR, 95% CI, and p-value for adjusting each selected important baseline covariate in the final model were presented.
As an additional exploratory analysis, the relationships between post-baseline lipid values and treatment effects with the primary and key secondary endpoints were assessed by adding lipid values (at 4 months, 1 year, etc.) as time varying covariates in the Cox proportional hazards model. Diagnostic plots for the proportional hazard's assumption was evaluated.

[1] = Overall (with all selected covariates)
[2] = adjusting baseline covariate: Age at baseline (<65 or ≥65 years)
[3] = adjusting baseline covariate: Baseline hsCRP (≤3 mg/L or >3 mg/L)
[4] = adjusting baseline covariate: Baseline non-HDL-C (by tertile)
[5] = adjusting baseline covariate: Presence/absence of diabetes at baseline
[6] = adjusting baseline covariate: Sex
[7] = adjusting time varying covariate HDL-C (mg/dL)
[8] = adjusting time varying covariate LDL-C (Hopkins) (mg/dL)
[9] = adjusting time varying covariate LDL-C (ultracentrifugation) (mg/dL)
[10] = adjusting time varying covariate LDL-C derived (mg/dL)
[11] = adjusting time varying covariate RLP-C (mg/dL)
[12] = adjusting time varying covariate TG (mg/dL)
[13] = adjusting time varying covariate apo B (mg/dL)
[14] = adjusting time varying covariate hsCRP (mg/dL)

For `CC/C=C\C/C=C\C/C=C\C/C=C\C/C=C\CCCC(=O)OCC` [AMR101, eicosapentaenoic acid ethyl ester], the “Time to key secondary endpoint, HR (95% CI) AMR101/Placebo” value [1] was 0.730 (0.647-0.825), the “Time to primary endpoint, HR (95% CI) AMR101/Placebo” value [1] was 0.750 (0.680-0.828) and the “Time to key secondary endpoint, HR (95% CI) AMR101/Placebo” value [2] was 0.739 (0.654-0.834). For the same compound, the “Time to primary endpoint, HR (95% CI) AMR101/Placebo” value [2] was 0.755 (0.684-0.833), the “Time to key secondary endpoint, HR (95% CI) AMR101/Placebo” value [3] was 0.731 (0.648-0.826) and the “Time to primary endpoint, HR (95% CI) AMR101/Placebo” value [3] was 0.750 (0.679-0.828). For the same compound, the “Time to key secondary endpoint, HR (95% CI) AMR101/Placebo” value [4] was 0.738 (0.654-0.833), the “Time to primary endpoint, HR (95% CI) AMR101/Placebo” value [4] was 0.755 (0.684-0.833) and the “Time to key secondary endpoint, HR (95% CI) AMR101/Placebo” value [5] was 0.731 (0.647-0.825). The “Time to primary endpoint, HR (95% CI) AMR101/Placebo” value [5] was 0.750 (0.679-0.827), the “Time to key secondary endpoint, HR (95% CI) AMR101/Placebo” value [6] was 0.734 (0.650-0.829) and the “Time to primary endpoint, HR (95% CI) AMR101/Placebo” value [6] was 0.751 (0.680-0.829). For the same compound, the “Time to key secondary endpoint, HR (95% CI) for Treatment (AMR101 vs Placebo)” value [7] was 0.710 (0.629-0.802), the “Time to primary endpoint, HR (95% CI) for Treatment (AMR101 vs Placebo)” value [7] was 0.730 (0.661-0.806) and the “Time to primary endpoint, HR (95% CI) for Treatment (AMR101 vs Placebo)” value (adjusting time varying covariate LDL-C (Friedewald) (mg/dL)) was 0.760 (0.688-0.839). For the same compound, the “Time to key secondary endpoint, HR (95% CI) for Treatment (AMR101 vs Placebo)” value [8] was 0.761 (0.674-0.860), the “Time to primary endpoint, HR (95% CI) for Treatment (AMR101 vs Placebo)” value [8] was 0.772 (0.699-0.852) and the “Time to key secondary endpoint, HR (95% CI) for Treatment (AMR101 vs Placebo)” value [9] was 0.737 (0.652-0.834). For the same compound, the “Time to primary endpoint, HR (95% CI) for Treatment (AMR101 vs Placebo)” value [9] was 0.759 (0.687-0.839), the “Time to key secondary endpoint, HR (95% CI) for Treatment (AMR101 vs Placebo)” value [10] was 0.740 (0.655-0.836) and the “Time to primary endpoint, HR (95% CI) for Treatment (AMR101 vs Placebo)” value [10] was 0.752 (0.681-0.830). For the same compound, the “Time to key secondary endpoint, HR (95% CI) for Treatment (AMR101 vs Placebo)” value [11] was 0.768 (0.679-0.867), the “Time to primary endpoint, HR (95% CI) for Treatment (AMR101 vs Placebo)” value [11] was 0.784 (0.709-0.866) and the “Time to key secondary endpoint, HR (95% CI) for Treatment (AMR101 vs Placebo)” value [12] was 0.754 (0.668-0.851). The “Time to primary endpoint, HR (95% CI) for Treatment (AMR101 vs Placebo)” value [12] was 0.772 (0.700-0.853), the “Time to key secondary endpoint, HR (95% CI) for Treatment (AMR101 vs Placebo)” value [13] was 0.752 (0.665-0.850) and the “Time to primary endpoint, HR (95% CI) for Treatment (AMR101 vs Placebo)” value [13] was 0.762 (0.690-0.842). The “Time to key secondary endpoint, HR (95% CI) for Treatment (AMR101 vs Placebo)” value [14] was 0.745 (0.660-0.841), the “Time to primary endpoint, HR (95% CI) for Treatment (AMR101 vs Placebo)” value [14] was 0.758 (0.686-0.836) and the “Time to key secondary endpoint, HR (95% CI) for Treatment (AMR101 vs Placebo)” value (adjusting time varying covariate non-HDL-C (mg/dL)) was 0.773 (0.684-0.874).
